Tested on: human fibroblasts
Assay: Wound healing model (scratch wound) in human fibroblasts
Assay type: cell-based
Conditions: 14 hours after wounding; initial wound area defined as 100%; added to cell culture medium
Text: Preliminary cell studies with human fibroblasts have been performed to test potential health benefits of LCMUFA in skin.
The main objective of the study was to show whether addition of a LCMUFA concentrate (Cetoleic acid concentrate) or DHA to cell culture medium would: • 1) Influence the capacity of the cells to regenerate after damage (so called “wound healing model”), • 2) Influence the production of melanin (skin pigment), • 3) Influence the expression of genes involved in inflammation after induced oxidative stress.
Wound healing model: Treatment arms included addition of DHA or the LCMUFA contrate to the cell culture medium, respectively. The control was cells only added culture medium, no fatty acids. The effect on closing of wound 14 hours after initiation of a wound was measured.
The initial wound area was defined as 100%, then the wound opening was measured after 14 hours to a percentage of the original wound. The reduction was approximately 60% for LC-MUFA and 50% for DHA, respectively.

SMILES: CC/C=C\C/C=C\C/C=C\C/C=C\C/C=C\C/C=C\CCC(=O)O [DHA, Docosahexaenoic acid]
- reduction of scratch wound area: ~50%

— patent publication US20260069563A1, “CETOLEIC ACID COMPOSITION” (Epax Norway AS, priority 2022, published 2026)
